Test results published in ChEMBL document CHEMBL1201862, “PubChem BioAssay data set” (2004).
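All cell lines were grown in 96-well plates and treated with compound for 48 hours. GI50 marks 50% less growth.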 Calls of active or inactive are those of the source. Cut-off read from the data, not from the text of the source: active = GI50 up to about 1.1 µM and inactive = higher.

Tests used:
Experiment in all cases: NCI tumour cell line growth inhibition, 48 h
M14 = system: M14
A549 = system: A549
CCRF-CEM = system: CCRF-CEM
SNB-19 = system: SNB-19
SK-OV-3 = system: SK-OV-3
NCI-H226 = system: NCI-H226
MCF7 = system: MCF7
U-251 = system: U-251
HOP-62 = system: HOP-62
SK-MEL-28 = system: SK-MEL-28
SW-620 = system: SW-620
RPMI-8226 = system: RPMI-8226
UACC-62 = system: UACC-62
MOLT-4 = system: MOLT-4
Malme-3M = system: Malme-3M
NCI/ADR-RES = system: NCI/ADR-RES
HCC 2998 = system: HCC 2998
SF-295 = system: SF-295
SNB-75 = system: SNB-75
NCI-H522 = system: NCI-H522

Measured: GI50

CC1S/C(=N\N=C2/C(=O)Nc3ccc(Br)cc32)N(C2CCCCC2)C1=O (stereo not drawn)
inactive: M14 4.29 µM | A549 3.41 µM | CCRF-CEM 39.8 µM | SNB-19 4.06 µM | SK-OV-3 2.84 µM | NCI-H226 4.03 µM | MCF7 12.5 µM | U-251 2.54 µM | HOP-62 2.09 µM | SK-MEL-28 6.08 µM | SW-620 11.7 µM | RPMI-8226 16.8 µM | UACC-62 2.01 µM | MOLT-4 5.37 µM | Malme-3M 9.23 µM | NCI/ADR-RES 3.4 µM | HCC 2998 4.08 µM | SF-295 3.89 µM

CC1=CC(c2ccccc2)n2c(nc3cc4ccccc4cc32)N1 (stereo not drawn)
inactive: M14 > 100 µM | SNB-75 > 100 µM | A549 > 100 µM | CCRF-CEM > 100 µM | SNB-19 > 100 µM | SK-OV-3 > 100 µM | NCI-H226 > 100 µM | MCF7 > 100 µM | U-251 > 100 µM | SK-MEL-28 > 100 µM | SW-620 > 100 µM | RPMI-8226 > 100 µM | UACC-62 > 100 µM | MOLT-4 > 100 µM | Malme-3M > 100 µM | NCI/ADR-RES > 100 µM | HCC 2998 > 100 µM | SF-295 > 100 µM

COC(=O)c1sc(=O)sc1SCc1cccc(CSc2sc(=O)sc2C(=O)OC)c1
inactive: M14 36.4 µM | A549 51.4 µM | CCRF-CEM 50.5 µM | SNB-19 22.3 µM | SK-OV-3 22.7 µM | NCI-H226 61.4 µM | MCF7 9.33 µM | U-251 17.4 µM | HOP-62 16 µM | SK-MEL-28 55.8 µM | SW-620 > 100 µM | UACC-62 33.7 µM | MOLT-4 47.6 µM | NCI-H522 29 µM | Malme-3M 18.7 µM | NCI/ADR-RES 62.4 µM | HCC 2998 53.7 µM | SF-295 26.2 µM

Cc1ccc(C)n2c1nc1ccc3ccccc3c12
inactive: M14 > 100 µM | SNB-75 17.3 µM | A549 > 100 µM | CCRF-CEM > 100 µM | SNB-19 > 100 µM | SK-OV-3 > 100 µM | NCI-H226 > 100 µM | MCF7 26.8 µM | U-251 > 100 µM | HOP-62 > 100 µM | SK-MEL-28 > 100 µM | SW-620 > 100 µM | RPMI-8226 > 100 µM | UACC-62 53.2 µM | MOLT-4 > 100 µM | Malme-3M > 100 µM | NCI/ADR-RES > 100 µM | HCC 2998 > 100 µM | SF-295 > 100 µM

Nc1c2ccccc2nc2c1ccc1ncccc12
inactive: M14 19.4 µM | SNB-75 22.3 µM | A549 21.9 µM | CCRF-CEM 6.78 µM | SNB-19 36.8 µM | SK-OV-3 30.5 µM | NCI-H226 13.9 µM | MCF7 6.46 µM | U-251 39.1 µM | SK-MEL-28 33.7 µM | SW-620 11.7 µM | UACC-62 14.5 µM | MOLT-4 5.15 µM | NCI-H522 12 µM | Malme-3M 12.4 µM | NCI/ADR-RES 19.9 µM | HCC 2998 8.99 µM | SF-295 21.8 µM

CN1C(=O)N/C(=C\c2ccc(S(=O)(=O)N/N=C/c3ccccc3)cc2)C1=O
inactive: M14 37 µM | SNB-75 48.3 µM | A549 28.5 µM | CCRF-CEM 13.3 µM | SNB-19 62.2 µM | SK-OV-3 > 100 µM | NCI-H226 74.6 µM | MCF7 19.1 µM | U-251 40.6 µM | HOP-62 64.9 µM | SK-MEL-28 38 µM | SW-620 91.6 µM | RPMI-8226 18.6 µM | UACC-62 28.9 µM | MOLT-4 14.5 µM | Malme-3M 45.5 µM | NCI/ADR-RES 27.6 µM | HCC 2998 32.1 µM | SF-295 21.9 µM

CC(C)=CC(=O)c1[nH]c2ccccc2c1CC(=O)NCCc1cncn1C
inactive: M14 72.3 µM | SNB-75 52.4 µM | A549 68.4 µM | CCRF-CEM 55.2 µM | SNB-19 93.8 µM | SK-OV-3 > 100 µM | NCI-H226 88.3 µM | MCF7 42.4 µM | U-251 74.5 µM | SK-MEL-28 > 100 µM | SW-620 85.7 µM | UACC-62 61.9 µM | MOLT-4 > 100 µM | NCI-H522 21.8 µM | Malme-3M > 100 µM | NCI/ADR-RES > 100 µM | HCC 2998 34.6 µM | SF-295 > 100 µM
